In US12649733B2, “3,6-diamino-pyridazin-3-yl derivatives, pharmaceutical compositions containing them and their uses as pro-apoptotic agents” (LES LABORATOIRES SERVIER, priority 2019, dated 2026) one finds Ki and IC50 data, which are given here for 15 compounds.

Assay [1] deals with T1, BCLXL (Homo sapiens, UniProt Q07817, V10N/V9A). Kind of assay: Fluorescence polarisation assay (PUMA-based probe displacement). Also: 20 nM protein, 10 nM fluorescent probe. Type of assay: binding.
In assay [2] the target is T1, BCLXL. The experiment in a line: AlphaLISA assay (BIM peptide displacement). Type of assay: binding. The settings on record: 20 pM protein, 1 nM peptide. Put shortly:
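Competitive displacement of fluorescein-labelled BIM peptide (1 nM) from biotinylated GST-BCL-XL(2-209) (20 pM) in 10 mM HEPES, 150 mM NaCl, 0.05% Tween 20, pH 7.4, 4% DMSO; 11-point dilutions. Overnight at 23° C with acceptor beads, then donor beads 2 h; Alpha signal at 615 nm.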
On the technique in general: Bead proximity is the source of the signal in Alpha formats.

The target in the next assay is T2, Bcl-xL protein (Homo sapiens, UniProt Q07817, N197C).
T2 construct: (2-197)[N197C]; His-His (two His8 stretches joined by a Gly/Ala/Ser/Thr linker)
Kind of assay: Fluorescence quenching assay (PUMA peptide displacement). Type of assay: binding. The conditions noted are these: 1 nM protein, 400 nM peptide, 2 hours at 23° C.; KI determined from IC50. The method in brief: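 Compounds were tested as an 11-point series in pH 7.4 HEPES/NaCl/Tween buffer with 5% DMSO, 2 h at 23 °C. Cy5-tagged Bcl-xL(2-197, N197C) at 1 nM and quencher-tagged PUMA peptide at 400 nM were used. Competitive binders restore fluorescence (620/680 nm), and IC50 values were converted to KI.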

The next assay has as its system H146 cells. The experiment in a line: H146 cell viability, MTT assay. Type of assay: cell-based. The settings on record: Homo sapiens, NCI-H146, 48 h, 48 h exposure. Put shortly:
(§1)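 Viability read by MTT reduction (OD 540 nm after overnight SDS/HCl lysis) after 48 h compound treatment of cells in RPMI 1640/10% FBS. Triplicates at nine concentrations, 3.16-fold apart; four-parameter curve fitting yields IC50.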

Another assay concerns MOLT-4 cells. Kind of assay: MOLT-4 cell viability, MTT assay. In kind it is cell-based. The conditions noted are these: Homo sapiens, MOLT-4, 48 h, 48 h exposure. Put shortly:
as §1
In general terms: Tetrazolium dyes change colour on reduction, which living cells bring about.

T1 sequence (Q07817 with tags, fused parts or gaps V9A/V10N): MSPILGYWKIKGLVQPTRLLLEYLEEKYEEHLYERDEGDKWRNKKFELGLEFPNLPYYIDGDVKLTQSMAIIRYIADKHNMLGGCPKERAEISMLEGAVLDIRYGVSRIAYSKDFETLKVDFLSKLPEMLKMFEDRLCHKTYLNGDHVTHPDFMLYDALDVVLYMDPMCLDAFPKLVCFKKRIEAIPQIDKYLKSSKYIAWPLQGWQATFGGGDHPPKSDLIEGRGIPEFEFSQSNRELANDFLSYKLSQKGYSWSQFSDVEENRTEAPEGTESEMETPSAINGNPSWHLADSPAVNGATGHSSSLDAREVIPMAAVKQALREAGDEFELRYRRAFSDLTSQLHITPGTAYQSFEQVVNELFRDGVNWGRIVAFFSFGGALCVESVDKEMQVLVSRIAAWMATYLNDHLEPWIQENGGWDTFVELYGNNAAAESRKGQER
T2 sequence (Q07817 2-197 N197C): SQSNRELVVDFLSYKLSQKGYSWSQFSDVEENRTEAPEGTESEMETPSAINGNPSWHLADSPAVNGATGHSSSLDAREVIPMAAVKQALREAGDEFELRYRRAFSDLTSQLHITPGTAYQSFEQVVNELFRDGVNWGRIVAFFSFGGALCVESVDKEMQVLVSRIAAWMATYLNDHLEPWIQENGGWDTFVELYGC

For `Cc1cc(N(C)c2nc(C(=O)O)c(CCCOc3ccc(C#CCN(C)C)cc3F)s2)nnc1Nc1nc2ccccc2s1` [Example 50, 2-[[6-(1,3-Benzothiazol-2-ylamino)-5-methyl-pyridazin-3-yl]-methyl-amino]-5-[3-[4-[3-(dimethylamino)prop-1-ynyl]-2-fluoro-phenoxy]propyl]thiazole-4-carboxylic acid], the values for the inhibition constant Ki on BCLXL [1] and on Bcl-xL protein were 1.2 nM and 0.0044 nM, respectively. The figures for the IC50 at BCLXL [2], in the assay with H146 cells and in the assay on MOLT-4 cells were 0.0074 nM, 2.84 nM and 0.462 nM, respectively.

On to `CN(C)CC#Cc1ccc(OCCCc2sc(N(C)c3cc(C4CC4)c(Nc4nc5ccccc5s4)nn3)nc2C(=O)O)c(F)c1` [Example 62, 2-({6-[(1,3-Benzothiazol-2-yl)amino]-5-cyclopropylpyridazin-3-yl}(methyl)amino)-5-(3-{4-[3-(dimethylamino)prop-1-yn-1-yl]-2-fluorophenoxy}propyl)-1,3-thiazole-4-carboxylic acid], for which the Ki – broadly, a dissociation constant, usually derived from enzyme kinetics or from competition with a known ligand – at BCLXL [1] is under 1 nM; at Bcl-xL protein, 0.006 nM. The IC50 (usually the point on the concentration scale where inhibition reaches its midpoint) on BCLXL [2] was found to be 0.11 nM; in the assay on H146 cells it was 4.66 nM; in the assay with MOLT-4 cells it was 0.444 nM.

As for `CNCC#Cc1ccc(OCCCc2sc(N(CCC(O)COC)c3cc(C)c(Nc4nc5ccccc5s4)nn3)nc2C(=O)O)c(F)c1` (centres unmarked) [Example 109, 2-[[6-(1,3-Benzothiazol-2-ylamino)-5-methyl-pyridazin-3-yl]-(3-hydroxy-4-methoxy-butyl)amino]-5-[3-[2-fluoro-4-[3-(methylamino)prop-1-ynyl]phenoxy]propyl]thiazole-4-carboxylic acid], the figures for the Ki on BCLXL [1] and on Bcl-xL protein were under 1 nM and 0.0011 nM, respectively. Moreover, the IC50 stood at 0.011 nM on BCLXL [2], 6.38 nM with H146 cells and 19.8 nM in the assay with MOLT-4 cells.

As for `Cc1cc(N(C)c2nc(C(=O)O)c(CC(C)COc3ccc(C#CCN(C)C)cc3F)s2)nnc1Nc1nc2ccccc2s1` (centres unmarked) [Example 116, 2-({6-[(1,3-Benzothiazol-2-yl)amino]-5-methylpyridazin-3-yl}(methyl)amino)-5-(3-{4-[3-(dimethylamino)prop-1-yn-1-yl]-2-fluorophenoxy}-2-methylpropyl)-1,3-thiazole-4-carboxylic acid], the IC50 at BCLXL [2] stood at 0.017 nM; in the assay on H146 cells it was 19.1 nM; in the assay on MOLT-4 cells, 3.06 nM. The Ki on Bcl-xL protein turned out to be 0.0086 nM.

On to `CNCC#Cc1ccc(OCCCc2sc(N(CC(O)CO)c3cc(C)c(Nc4nc5ccccc5s4)nn3)nc2C(=O)O)c(F)c1` (centres unmarked) [Example 117, 2-[[6-(1,3-Benzothiazol-2-ylamino)-5-methyl-pyridazin-3-yl]-(2,3-dihydroxypropyl)amino]-5-[3-[2-fluoro-4-[3-(methylamino)prop-1-ynyl]phenoxy]propyl]thiazole-4-carboxylic acid], for which the values for the half-maximal inhibitory concentration (IC50) at BCLXL [2], in the assay with H146 cells and with MOLT-4 cells were 0.0099 nM, 49.6 nM and 486 nM, respectively. Also, on Bcl-xL protein, the Ki was 0.0066 nM.

In the case of `CNCC#Cc1ccc(OCCCc2sc(N(CC(CO)OC)c3cc(C)c(Nc4nc5ccccc5s4)nn3)nc2C(=O)O)c(F)c1` (centres unmarked) [Example 118, 2-[[6-(1,3-Benzothiazol-2-ylamino)-5-methyl-pyridazin-3-yl]-(3-hydroxy-2-methoxy-propyl)amino]-5-[3-[2-fluoro-4-[3-(methylamino)prop-1-ynyl]phenoxy]propyl]thiazole-4-carboxylic acid], the values for the IC50 on BCLXL [2], in the assay with H146 cells and in the assay on MOLT-4 cells were 0.018 nM, 32.6 nM and 96 nM, respectively. The Ki on Bcl-xL protein was 0.033 nM.

As for `Cc1cc(N(CC(O)CO)c2nc(C(=O)O)c(CCCOc3ccc(C#CCN(C)C)cc3F)s2)nnc1Nc1nc2ccccc2s1` (centres unmarked) [Example 122, 2-[[6-(1,3-Benzothiazol-2-ylamino)-5-methyl-pyridazin-3-yl]-(2,3-dihydroxypropyl)amino]-5-[3-[4-[3-(dimethylamino)prop-1-ynyl]-2-fluoro-phenoxy]propyl]thiazole-4-carboxylic acid], the values for the IC50 at BCLXL [2], in the assay on H146 cells and in the assay on MOLT-4 cells were 0.0098 nM, 51.4 nM and 280 nM, respectively. For the same compound, the inhibitory constant (Ki) on Bcl-xL protein is 0.003 nM.

Take `Cc1cc(N(CCCC(O)CN(C)CCN(C)C)c2nc(C(=O)O)c(CCCOc3ccc(C#CCN(C)C)cc3F)s2)nnc1Nc1nc2ccccc2s1` (centres unmarked) [Example 124, 2-[[6-(1,3-Benzothiazol-2-ylamino)-5-methyl-pyridazin-3-yl]-[5-[2-(dimethylamino)ethyl-methyl-amino]-4-hydroxy-pentyl]amino]-5-[3-[4-[3-(dimethylamino)prop-1-ynyl]-2-fluoro-phenoxy]propyl]thiazole-4-carboxylic acid]: the Ki at BCLXL [1] is under 1 nM; at Bcl-xL protein, 0.0017 nM. The values for the half-maximal inhibitory concentration (IC50) on BCLXL [2], in the assay with H146 cells and with MOLT-4 cells were 0.0076 nM, 50.6 nM and 19.2 nM, respectively.

For `CNCC#Cc1ccc(OCCCc2sc(N(CCCCCO)c3cc(C)c(Nc4nc5ccccc5s4)nn3)nc2C(=O)O)c(F)c1` [Example 128], the IC50 at BCLXL [2] came to 0.013 nM; in the assay with H146 cells it was 20.8 nM; in the assay on MOLT-4 cells it was 18.1 nM. Further, the Ki at Bcl-xL protein turned out to be 0.028 nM.

For the compound `Cc1cc(N(CCCCO)c2nc(C(=O)O)c(CCCOc3ccc(C#CCN(C)C)cc3F)s2)nnc1Nc1nc2ccccc2s1` [Example 134, 2-[[6-(1,3-Benzothiazol-2-ylamino)-5-methyl-pyridazin-3-yl]-(4-hydroxybutyl)amino]-5-[3-[4-[3-(dimethylamino)prop-1-ynyl]-2-fluoro-phenoxy]propyl]thiazole-4-carboxylic acid], the inhibition constant (Ki) was under 1 nM on BCLXL [1] and 0.001 nM on Bcl-xL protein. Also, the half-maximal inhibitory concentration (IC50) at BCLXL [2] is 0.0053 nM; with H146 cells, 1.91 nM; with MOLT-4 cells, 0.783 nM.

In the case of `Cc1cc(N(CCCCCO)c2nc(C(=O)O)c(CCCOc3ccc(C#CCN(C)C)cc3F)s2)nnc1Nc1nc2ccccc2s1` [Example 141, 2-[[6-(1,3-Benzothiazol-2-ylamino)-5-methyl-pyridazin-3-yl]-(5-hydroxypentyl)amino]-5-[3-[4-[3-(dimethylamino)prop-1-ynyl]-2-fluoro-phenoxy]propyl]thiazole-4-carboxylic acid], the Ki on BCLXL [1] was under 1 nM; at Bcl-xL protein, 0.0055 nM. The IC50 on BCLXL [2] was found to be 0.014 nM.

With `CNCC#Cc1ccc(OCCCc2sc(N(CCCC(O)C[N+](C)(C)C)c3cc(C)c(Nc4nc5ccccc5s4)nn3)nc2C(=O)[O-])c(F)c1` (centres unmarked) [Example 144, 2-[[6-(1,3-Benzothiazol-2-ylamino)-5-methyl-pyridazin-3-yl]-[4-hydroxy-5-(trimethylammonio)pentyl]amino]-5-[3-[2-fluoro-4-[3-(methylamino)prop-1-ynyl]phenoxy]propyl]thiazole-4-carboxylate], the inhibitory constant (Ki) at BCLXL [1] is under 1 nM; at Bcl-xL protein it was 0.0039 nM. Also, the results for the IC50 at BCLXL [2], in the assay with H146 cells and in the assay with MOLT-4 cells were 0.014 nM, 14500 nM and 430 nM, respectively.

On to `Cc1cc(N(CCCCNCCN2CCN(C)CC2)c2nc(C(=O)O)c(CCCOc3ccc(C#CCN(C)C)cc3F)s2)nnc1Nc1nc2ccccc2s1` [Example 168, 2-[[6-(1,3-Benzothiazol-2-ylamino)-5-methyl-pyridazin-3-yl]-[4-[2-(4-methylpiperazin-1-yl)ethylamino]butyl]amino]-5-[3-[4-[3-(dimethylamino)prop-1-ynyl]-2-fluoro-phenoxy]propyl]thiazole-4-carboxylic acid], for which the inhibition constant Ki at BCLXL [1] is under 1 nM; at Bcl-xL protein it was 0.0026 nM. Besides, the IC50 on BCLXL [2] stood at 0.012 nM; in the assay with MOLT-4 cells, 178 nM.

Consider `Cc1cc(N(CCCC(O)CNCCN2CCCCC2)c2nc(C(=O)O)c(CCCOc3ccc(C#CCN(C)C)cc3F)s2)nnc1Nc1nc2ccccc2s1` (centres unmarked) [Example 173, 2-[[6-(1,3-Benzothiazol-2-ylamino)-5-methyl-pyridazin-3-yl]-[4-hydroxy-5-[2-(1-piperidyl)ethylamino]pentyl]amino]-5-[3-[4-[3-(dimethylamino)prop-1-ynyl]-2-fluoro-phenoxy]propyl]thiazole-4-carboxylic acid], for which the IC50 at BCLXL [2] worked out at 0.0079 nM; in the assay on H146 cells, 208 nM; with MOLT-4 cells, 127 nM. For the same compound, the Ki on Bcl-xL protein was 0.0033 nM.

For the compound `CNCC#Cc1ccc(OC/C(C)=C/c2sc(N(C)c3cc(C)c(Nc4nc5ccccc5s4)nn3)nc2C(=O)O)c(F)c1` [Example 174, 2-({6-[(1,3-Benzothiazol-2-yl)amino]-5-methylpyridazin-3-yl}(methyl)amino)-5-[(1E)-3-{2-fluoro-4-[3-(methylamino)prop-1-yn-1-yl]phenoxy}-2-methylprop-1-en-1-yl]-1,3-thiazole-4-carboxylic acid], the values for the IC50 on BCLXL [2], in the assay with H146 cells and with MOLT-4 cells were 0.6 nM, 12600 nM and 1660 nM, respectively. The Ki at Bcl-xL protein was found to be 0.043 nM.
